Measurements reported in patent US7572818B2, “2-pyridylethylbenzamide derivative” (Bayer Cropscience S.A., priority 2002, dated 2009).

System: Alternaria brassicae
Assay: In vivo test of activity on Alternaria brassicae (crucifer black spot) on radish
Conditions: preventive spray 24 h before inoculation
Experimental: In Vivo Test of Activity on Alternaria brassicae (Crucifer Black Spot)
An aqueous solution of the active material to be tested is prepared at a concentration of 2 g/l by grinding in solution 1 or solution 2:
• Water • Tween 80 diluted to 10% in water: 5 μl/mg of active material • Clay in a sufficient amount for active material+clay to equal 100 mg; Solution 2
Concentrated solution containing surfactants and adjuvants conventionally used: 200 μl/mg of active material.
The aqueous solution is diluted with water so as to obtain the desired concentration.
Radishes of the Pernot variety are sown in a 50/50 pozzolan/peat substrate and maintained at 18-22° C. The treatment is carried out by spraying the aqueous suspension. The untreated control plants are sprayed with water. 24 hours after treatment, the plants are inoculated by spraying a solution of Alternaria brassicae spores (40 000 spores/ml) originating from a 12-day culture.
The radish plants are then maintained at 18-20° C. in a humid atmosphere. The effectiveness of the products is evaluated relative to the control plants after seven to eight days of incubation.
The effectiveness of the molecules is estimated, at 500 g/ha, 250 g/ha or 330 ppm, by the percentage of control relative to untreated plants. Under these conditions, good effectiveness is defined as more than 80% effectiveness. Average effectiveness is defined as an effectiveness between 50 and 80%. Poor effectiveness is defined as an effectiveness between 10 and 50% and zero effectiveness is defined as less than 10% effectiveness.

Structure (SMILES) | effectiveness (percentage of control relative to untreated plants) (330 ppm) | further results
COc1ccc(C(=O)NCCc2ncc(C(F)(F)F)cc2Cl)cc1OC [Compound A-13] |  | effectiveness (percentage of control relative to untreated plants) (500 g/ha): good to average
COc1cc(OC)cc(C(=O)NCCc2ncc(C(F)(F)F)cc2Cl)c1 [Compound A-14] |  | effectiveness (percentage of control relative to untreated plants) (500 g/ha): good to average
O=C(NCCc1ncc(C(F)(F)F)cc1Cl)c1cccc(C(F)(F)F)c1 [Compound A-28] |  | effectiveness (percentage of control relative to untreated plants) (250 g/ha): good to average
O=C(NCCc1ncc(C(F)(F)F)cc1Cl)c1ccccc1[N+](=O)[O-] [Compound A-29] |  | effectiveness (percentage of control relative to untreated plants) (250 g/ha): good to average
O=C(NCCc1ncc(C(F)(F)F)cc1Cl)c1cc(F)c(F)cc1F [Compound A-41] |  | effectiveness (percentage of control relative to untreated plants) (250 g/ha): good to average
O=C(NCCc1ncc(C(F)(F)F)cc1Cl)c1cccc(Cl)c1Cl [Compound A-48] | good to average | 
O=C(NCCc1ncc(C(F)(F)F)cc1Cl)c1cc(Cl)ccc1Cl [Compound A-49] | good to average | 
O=C(NCCc1ncc(C(F)(F)F)cc1Cl)c1ccccc1O [Compound A-52] | good to average | 
Cc1cccc(C(=O)NCCc2ncc(C(F)(F)F)cc2Cl)c1C [Compound A-60] | good to average | 
Cc1ccc(C)c(C(=O)NCCc2ncc(C(F)(F)F)cc2Cl)c1 [Compound A-62] | good to average | 
O=C(NCCc1ncc(C(F)(F)F)cc1Cl)c1cc(C(F)(F)F)ccc1C(F)(F)F [Compound A-72] | good to average | 
O=C(NCCc1ncc(C(F)(F)F)cc1Cl)c1ccc(C(F)(F)F)cc1C(F)(F)F [Compound A-74] | good to average | 
O=C(NCCc1ncc(C(F)(F)F)cc1Cl)c1c(C(F)(F)F)ccc(Cl)c1F [Compound A-75] | good to average | 
Cc1c(C(=O)NCCc2ncc(C(F)(F)F)cc2Cl)cccc1[N+](=O)[O-] [Compound A-77] | good to average | 
Cc1ccc([N+](=O)[O-])cc1C(=O)NCCc1ncc(C(F)(F)F)cc1Cl [Compound A-79] | good to average | 
Cc1cc(Br)ccc1C(=O)NCCc1ncc(C(F)(F)F)cc1Cl [Compound A-80] | good to average | 
COc1cc(OC)c(C(=O)NCCc2ncc(C(F)(F)F)cc2Cl)cc1OC [Compound A-84] | good to average | 
COc1ccc(OC)c(C(=O)NCCc2ncc(C(F)(F)F)cc2Cl)c1 [Compound A-85] | good to average | 
CCOc1ccccc1C(=O)NCCc1ncc(C(F)(F)F)cc1Cl [Compound A-86] | good to average | 
CCCOc1ccccc1C(=O)NCCc1ncc(C(F)(F)F)cc1Cl [Compound A-91] | good to average | 

Structure (SMILES) | effectiveness (percentage of control relative to untreated plants) (330 ppm) | further results
COc1ccc(C(C)(C)C)cc1C(=O)NCCc1ncc(C(F)(F)F)cc1Cl [Compound A-92] | good to average | 
CSc1ccc(Cl)c(C(=O)NCCc2ncc(C(F)(F)F)cc2Cl)c1 [Compound A-99] | good to average | 
O=C(NCCc1ncc(C(F)(F)F)cc1Cl)c1cc(Cl)ccc1Br [Compound A-100] | good to average | 
O=C(NCCc1ncc(C(F)(F)F)cc1Cl)c1cc(F)c(F)cc1Cl [Compound A-107] | good to average | 
O=C(NCCc1ncc(C(F)(F)F)cc1Cl)c1ccc(Cl)cc1Br [Compound A-110] | good to average | 
O=C(NCCc1ncc(C(F)(F)F)cc1Cl)c1c(F)cccc1Br [Compound A-112] | good to average | 
O=C(NCCc1ncc(C(F)(F)F)cc1Cl)c1c(F)ccc(F)c1Cl [Compound A-113] | good to average | 
O=C(NCCc1ncc(C(F)(F)F)cc1Cl)c1cccc(F)c1Br [Compound A-122] | good to average | 
Cc1cc(C(=O)NCCc2ncc(C(F)(F)F)cc2Cl)c(Cl)c(C)c1F [Compound A-123] | good to average | 
Cc1ccc(F)c(C(=O)NCCc2ncc(C(F)(F)F)cc2Cl)c1Cl [Compound A-124] | good to average | 
CSc1cc(Cl)ccc1C(=O)NCCc1ncc(C(F)(F)F)cc1Cl [Compound A-127] | good to average | 
CS(=O)(=O)c1cc(Cl)ccc1C(=O)NCCc1ncc(C(F)(F)F)cc1Cl [Compound A-128] | good to average | 
CS(=O)(=O)c1ccc(C(=O)NCCc2ncc(C(F)(F)F)cc2Cl)c(Cl)c1O [Compound A-136] | good to average | 
CS(=O)(=O)c1ccc(C(=O)NCCc2ncc(C(F)(F)F)cc2Cl)c(Br)c1 [Compound A-137] | good to average | 
CS(=O)(=O)c1ccc(C(=O)NCCc2ncc(C(F)(F)F)cc2Cl)c(C(F)(F)F)c1 [Compound A-138] | good to average | 
CS(=O)(=O)c1cc(C(F)(F)F)ccc1C(=O)NCCc1ncc(C(F)(F)F)cc1Cl [Compound A-139] | good to average | 
O=C(NCCc1ncc(C(F)(F)F)cc1Cl)c1ccc(Cl)c(Br)c1 [Compound A-141] | good to average | 
CSc1ccc(C(=O)NCCc2ncc(C(F)(F)F)cc2Cl)c(C)c1 [Compound A-142] | good to average | 
CSc1cc(C(F)(F)F)ccc1C(=O)NCCc1ncc(C(F)(F)F)cc1Cl [Compound A-143] | good to average | 
CSc1c(C(=O)NCCc2ncc(C(F)(F)F)cc2Cl)ccc(Cl)c1Cl [Compound A-144] | good to average | 

Structure (SMILES) | effectiveness (percentage of control relative to untreated plants) (330 ppm) | further results
CSc1c(C(=O)NCCc2ncc(C(F)(F)F)cc2Cl)ccc(Cl)c1Br [Compound A-146] | good to average | 
O=C(NCCc1ncc(C(F)(F)F)cc1Cl)c1ccc(Cl)c(C(F)(F)F)c1 [Compound A-147] | good to average | 
COc1c(F)ccc(C(=O)NCCc2ncc(C(F)(F)F)cc2Cl)c1SC [Compound A-148] | good to average | 
CSc1ccc(C(=O)NCCc2ncc(C(F)(F)F)cc2Cl)c(Br)c1 [Compound A-150] | good to average | 
CC(C)c1c(Br)cccc1C(=O)NCCc1ncc(C(F)(F)F)cc1Cl [Compound A-151] | good to average | 
CCc1cc(Br)ccc1C(=O)NCCc1ncc(C(F)(F)F)cc1Cl [Compound A-152] | good to average | 
Cc1cc(C(=O)NCCc2ncc(C(F)(F)F)cc2Cl)c([N+](=O)[O-])cc1C [Compound A-156] | good to average | 
O=C(NCCc1ncc(C(F)(F)F)cc1Cl)c1ccc(I)c(Br)c1 [Compound A-158] | good to average | 
Cc1c(C(=O)NCCc2ncc(C(F)(F)F)cc2Cl)ccc(Cl)c1F [Compound A-162] | good to average | 
CSc1c(F)ccc(C(=O)NCCc2ncc(C(F)(F)F)cc2Cl)c1F [Compound A-165] | good to average | 
CSc1c(Br)ccc(C(=O)NCCc2ncc(C(F)(F)F)cc2Cl)c1F [Compound A-168] | good to average | 
O=C(NCCc1ncc(C(F)(F)F)cc1Cl)c1cc(I)c(O)c(I)c1 [Compound A-169] | good to average | 
COc1cc([N+](=O)[O-])ccc1C(=O)NCCc1ncc(C(F)(F)F)cc1Cl [Compound A-171] | good to average | 
O=C(NCCc1ncc(C(F)(F)F)cc1Cl)c1ccc(Cl)cc1I [Compound A-176] | good to average | 
Cc1ccc(I)c(C(=O)NCCc2ncc(C(F)(F)F)cc2Cl)c1 [Compound A-177] | good to average | 
Cc1cccc(C(=O)NCCc2ncc(C(F)(F)F)cc2Cl)c1Cl [Compound A-178] | good to average | 
Cc1cccc(C(=O)NCCc2ncc(C(F)(F)F)cc2Cl)c1I [Compound A-179] | good to average | 
Cc1cccc(C(=O)NCCc2ncc(C(F)(F)F)cc2Cl)c1Br [Compound A-180] | good to average | 
COc1cc(Cl)c(C(=O)NCCc2ncc(C(F)(F)F)cc2Cl)cc1OC [Compound A-181] | good to average | 
